In brackets after ≈: the same amount, converted by molar mass. Like-named read-outs stand apart in the source and are kept apart here.
Columns and labels:
NL4-3 virus = experiment: Anti-HIV activity assay (TZM-bl cell model), NL4-3 wild-type; type: cell-based; settings: read-out: EC50, concentration effective to inhibit the replication of half of viruses
Procedure: (§1) The assay was carried out by reference to the document (Dang, Z, et al. J. Med. Chem. 2009, 52, 7887-7891). In particular, in a 96-well cell culture plate, solutions of the compounds to be tested at different concentrations were mixed with TZM-bl cells (from National Institutes of Health (NIH)) infected with 200 TCID50 NL4-3 virus, respectively. 2 days later, the culture medium was removed, 100 μl of Bright Glo reagent was added to each well, and Victor 2 luminometer was used to detect the […] of the cells.

[1] = system: NL4-3 virus (HIV, wild-type); experiment: as above; type: cell-based; settings: human, TZM-bl cells infected with HIV-1 NL4-3 virus; CC50 (TZM-bl) / EC50 (NL4-3); read-out: SI, selective index, ratio of toxic CC50 value to active EC50 value
Procedure: as §1

[2] = TZM-bl cytotoxicity assay (XTT); type: cell-based; settings: human, TZM-bl cells, read-out: CC50, concentration effective to inhibit the growth of half of cells
Procedure: The assay was carried out by reference to the document (Dang, Z, et al. J. Med. Chem. 2009, 52, 7887-7891). In particular, in a 96-well cell culture plate, solutions of Compounds 1-57 at different concentrations (100 μl) were mixed with an equivalent volume of TZM-bl cells (from National Institutes of Health (NIH)) (5×10^5/mL), and were incubated at 37° C. for 4 d. 50 μl of freshly prepared XTT solution (1 mg/mL) containing 0.02 μM PMS was added. Optical density at 450 nm was measured 4 h later.

[3] = Water-solubility at pH2.0; type: physicochemical; settings: aqueous medium (water) at pH 2.0, pH 2, simulated gastric fluid
[4] = Incubation experiment of human liver microsomes; type: in vitro ADME
[5] = system: K101E drug-resistant virus; experiment: Activity against drug-resistant virus K101E; type: cell-based, HIV; settings: Human immunodeficiency virus 1, read-out: Drug-resistant viruses EC50, K101E
[6] = Human immunodeficiency virus 1, NL43, NL4-3 HIV wild-type, TZM-bl cells

melting point | EC50 (NL4-3 virus; [6]) | Compound | selectivity ratio at 2 days [1] | CC50 at 4 d [2] | other results
262 to 265 °C | – | Cc1cc(/C=C/C#N)cc(C)c1Oc1cc(Nc2ccc(C#N)cc2)c([N+](=O)[O-])cc1C(=O)O [Compound 7, 4-carboxyl-5-(4″-cyanovinyl-2″,6″-dimethylphenoxy)-N^1-(4′-cyanophenyl)-2-nitroaniline] | – | – | –
– | 2.73 nM | Cc1cc(CCC#N)cc(C)c1Oc1cc(Nc2ccc(C#N)cc2)c(N)cc1CN(C)C [Compound 40, N^1-(4′-cyanophenyl)-5-(4″-cyanoethyl-2″,6″-dimethylphenoxy)-4-[N,N-dimethylaminomethyl]-1,2-phenylenediamine] | > 1830 | > 5000 nM | –
118 to 120 °C | 6.1 nM | Cc1cc(CCC#N)cc(C)c1Oc1cc(Nc2ccc(C#N)cc2)c(N)cc1N [Compound 35, 5-(4″-cyanoethyl-2″,6″-dimethylphenoxy)-N^1-(4′-cyanophenyl)-4-amino-1,2,4-triaminobenzene] | > 820 | > 5000 nM | –
– | 4.7 nM | CC(=O)CCc1cc(F)c(Oc2ccc(N)c(Nc3ccc(C#N)cc3)n2)c(F)c1 [Compound 30, N^2-(4-cyanoanilinyl)-6-(2,6-difluoro-4-(2-butanonyl)phenoxy)-3-aminopyridine] | > 2130 | > 9800 nM | –
– | 19.1 nM | Cc1cc(CCC#N)cc(C)c1Oc1cc(Nc2ccc(C#N)cc2)c(N)cc1C(=O)NN [Compound 36, 5-(4″-cyanoethyl-2″,6″-dimethylphenoxy)-N^1-(4′-cyanophenyl)-4-formhydrazide-1,2-phenylenediamine] | > 1190 | > 22700 nM | –
– | 1.33 nM | Cc1cc(CCC#N)cc(C)c1Oc1cc(Nc2ccc(C#N)cc2)c(N)cc1C(=O)NC1CC1 [Compound 43, N^1-(4′-cyanophenyl)-5-(4″-cyanoethyl-2″,6″-dimethylphenoxy)-4-[N-cyclopropylformamido]-1,2-phenylenediamine] | > 3760 | > 5000 nM | –
– | 3.29 nM | CC(=O)OCc1cc(N)c(Nc2ccc(C#N)cc2)cc1Oc1c(C)cc(CCC#N)cc1C [Compound 37, 4-acetyloxymethyl-N^1-(4′-cyanophenyl)-5-(4″-cyanoethyl-2″,6″-dimethylphenoxy)-1,2-phenylenediamine] | > 1520 | > 5000 nM | –
– | 6.17 nM | Cc1cc(CCC#N)cc(C)c1Oc1cc(Nc2ccc(C#N)cc2)c(N)cc1C(=O)N(C)C [Compound 42, N^1-(4′-cyanophenyl)-5-(4″-cyanoethyl-2″,6″-dimethylphenoxy)-4-[N,N-dimethylformamido]-1,2-phenylenediamine] | > 810 | > 5000 nM | –
– | – | CNC(=O)c1cc(N)c(Nc2ccc(C#N)cc2)cc1Oc1c(C)cc(CCC#N)cc1C [Compound 12, 5-(4″-cyanoethyl-2″,6″-dimethylphenoxy)-N^1-(4′-cyanophenyl)-4-(N-methyl-carbamoyl)-1,2-phenylenediamine] | > 3330 | > 9100 nM | solubility [3]: 8.28 µg/mL (≈ 18.8 µM); HLM t1/2 [4]: 55.7 min; EC50 (NL4-3 virus; Human immunodeficiency virus 1, NL43, TZM-bl): 2.73 nM; EC50 [5]: 14 nM
218 to 220 °C | – | CNC(=O)c1cc([N+](=O)[O-])c(Nc2ccc(C#N)cc2)cc1Oc1c(C)cc(/C=C/C#N)cc1C [Compound 11, N^1-(4′-cyanophenyl)-5-(4″-cyanovinyl-2″,6″-dimethylphenoxy)-4-(N-methylacylamino)-2-nitroaniline] | – | – | –
260 to 262 °C | – | COC(=O)c1cc([N+](=O)[O-])c(Nc2ccc(C#N)cc2)cc1Oc1c(C)cc(/C=C/C#N)cc1C [Compound 3, 5-(4″-cyanovinyl-2″,6″-dimethylphenoxy)-N^1-(4′-cyanophenyl)-4-methoxycarbonyl-2-nitroaniline] | – | – | –
232 to 234 °C | – | Cc1cc(/C=C/C#N)cc(C)c1Oc1cc(Nc2ccc(C#N)cc2)c([N+](=O)[O-])cc1CO [Compound 5, N^1-(4′-cyanophenyl)-5-(4″-cyanovinyl-2″,6″-dimethylphenoxy)-4-hydroxymethyl-2-nitroaniline] | – | – | –
216 to 218 °C | – | Cc1cc(CO)cc(C)c1Oc1cc(Nc2ccc(C#N)cc2)c([N+](=O)[O-])cc1CO [Compound 17, N-(4′-cyanophenyl)-5-(4″-hydroxymethyl-2″,6″-dimethylphenoxy)-4-hydroxymethyl-2-nitroaniline] | – | – | –
– | 99 nM | COC(=O)CCc1cc(F)c(Oc2ccc(N)c(Nc3ccc(C#N)cc3)n2)c(F)c1 [Compound 23, N^2-(4-cyanoanilinyl)-6-(2,6-difluoro-4-methyl propionatephenoxy)-3-aminopyridine] | > 155 | > 15300 nM | –
248 to 250 °C | – | Cc1cc(/C=C/C#N)cc(C)c1Oc1cc(Nc2ccc(C#N)cc2)c([N+](=O)[O-])cc1C(F)(F)F [Compound 1, 5-(4″-cyanovinyl-2″,6″-dimethylphenoxy)-N^1-(4′-cyanophenyl)-4-trifluoromethyl-2-nitroaniline] | – | – | –
– | 25.7 nM | COc1cc(/C=C/C#N)cc(Br)c1Oc1ccc(N)c(Nc2ccc(C#N)cc2)n1 [Compound 26B] | 1210 | 21300 nM | –
– | 4.63 nM | CCNC(=O)c1cc(N)c(Nc2ccc(C#N)cc2)cc1Oc1c(C)cc(CCC#N)cc1C [Compound 41] | > 1080 | > 5000 nM | –
– | 1.63 nM | Cc1cc(CCC#N)cc(C)c1Oc1cc(Nc2ccc(C#N)cc2)c(N)cc1COC(=O)C1CC1 [Compound 39, N^1-(4′-cyanophenyl)-5-(4″-cyanoethyl-2″,6″-dimethylphenoxy)-4-cyclopropionyloxymethyl-1,2-phenylenediamine] | > 3070 | > 5000 nM | –
– | 48 nM | N#Cc1ccc(Nc2nc(Oc3c(F)cc(CCCO)cc3F)ccc2N)cc1 [Compound 24, N^2-(4-cyanoanilinyl)-6-(2,6-difluoro-4-(3-hydroxypropyl)phenoxy)-3-aminopyridine] | > 525 | > 25200 nM | –
– | 2.18 nM | COCc1cc(N)c(Nc2ccc(C#N)cc2)cc1Oc1c(C)cc(CCC#N)cc1C [Compound 38, N^1-(4′-cyanophenyl)-5-(4″-cyanoethyl-2″,6″-dimethylphenoxy)-4-methoxymethyl-1,2-phenylenediamine] | > 2290 | > 5000 nM | –
– | 1.39 nM | Cc1cc(CCC#N)cc(C)c1Oc1cc(Nc2ccc(C#N)cc2)c(N)cc1C(N)=O [Compound 10, 4-carbamoyl-N^1-(4′-cyanophenyl)-5-(4″-cyanoethyl-2″,6″-dimethylphenoxy)-1,2-phenylenediamine] | > 6760 | > 9400 nM | –
278 to 280 °C | – | Cc1cc(/C=C/C#N)cc(C)c1Oc1cc(Nc2ccc(C#N)cc2)c([N+](=O)[O-])cc1C(N)=O [Compound 9] | – | – | –
– | 2.8 nM | N#CCCc1cc(F)c(Oc2ccc(N)c(Nc3ccc(C#N)cc3)n2)c(F)c1 [Compound 21, N^2-(4-cyanoanilinyl)-6-(2,6-difluoro-4-cyanoethyl-phenoxy)-3-aminopyridine] | > 3640 | > 10200 nM | –
198 to 200 °C | – | Cc1cc(/C=C/C#N)cc(C)c1Oc1cc(Nc2ccc(C#N)cc2)c([N+](=O)[O-])cc1S(N)(=O)=O [Compound 13, N-(4′-cyanophenyl)-5-(4″-cyanovinyl-2″,6″-dimethylphenoxy)-4-aminosulfonyl-2-nitroaniline] | – | – | –
– | 14.7 nM | CCCc1cc(C)c(Oc2ccc(N)c(Nc3ccc(C#N)cc3)n2)c(C)c1 [Compound 16, N^2-(4-cyanoanilinyl)-6-(2,6-dimethyl-4-propylphenoxy)-3-aminopyridine] | 1120 | 16400 nM | –
– | 10 nM | Cc1cc(CO)cc(C)c1Oc1cc(Nc2ccc(C#N)cc2)c(N)cc1CO [Compound 18, N^1-(4′-cyanophenyl)-5-(4″-hydroxymethyl-2″,6″-dimethylphenoxy)-4-hydroxymethyl-1,2-phenylenediamine] | > 1590 | > 15900 nM | –
275 to 277 °C | – | CC(=O)/C=C/c1cc(F)c(Oc2ccc([N+](=O)[O-])c(Nc3ccc(C#N)cc3)n2)c(F)c1 [Compound 29, N^2-(4-cyanoanilinyl)-6-(2,6-difluoro-4-((E)-1-methyleneacetonyl)phenoxy)-3-nitropyridine] | – | – | –
